# Assay results from patent US11554106B2, “Prevention of the risks associated with drug-induced QT interval prolongation by using a specific inhibitor of the production of ROS of miochondrial origin” (priority 2017, dated 2023).
# Experiments:
# [1] = marketed form; cited from earlier work
# [2] = test system: 1Q site of the respiratory chain; details: cited from earlier work
# QT and QTc intervals = assay: Moxifloxacin-induced QT prolongation in dogs (single-dose cross-over, telemetry ECG); assay type: in vivo, male Beagle dogs
# Protocol: Principle: This is a single-dose study in dogs to examine the protective effect of ATT on QT prolongation induced by the intravenous (IV) injection of a dose of moxifloxacin, which is considered the reference substance (positive control).
# Methodology: This is a cross-over and single-dose study conducted on 4 groups of 4 male Beagle dogs receiving, depending on the group: • Group 1—control group: intraperitoneal injection [i.p.] of the ATT vehicle; • Group 2—ATT, 5 mg/kg, administered i.p.; • Group 3—moxifloxacin, 15 mg/kg, administered as a slow IV injection in 5% lactic acid at 0.5 mL/kg; and • Group 4—an ATT dose of 5 mg/kg is injected i.p. 30 minutes before a slow IV dose of moxifloxacin of 15 mg/kg (see above).
# In this study, each dog is equipped with an implantable teletransmitter of the “DSI radio-telemetry transmitter” type allowing continuous ECG recording over 24 hours in 10-minute sequences, including the measurement of PQ, QRS, QT and QTc spaces (correction according to the Van de Water formula), heart rate as well as systolic and diastolic BP and mean BP. ECG analysis is performed using Notocord Systems® ECG51a software and BP analysis using APR30a software, also from Notocord Systems®.
# [3] = test system: acute organochlorine poisoning; assay: Treatment of a cat with acute organochlorine poisoning; assay type: in vivo; details: one cat, unpublished experiment
# From the text: Knowing that when ROS are overexpressed by mitochondria, this induces a simultaneous overproduction of cytosolic ROS, whose production source is NADPH oxidase (or NOX, usually NOX4 and NOX2), some authors conclude that NOX are the first responsible when in fact mitochondrial production is the culprit (Gosh R. et al., J. Clin. Diagn. Res., 2017, 11: BC09-BC12; Mangum L. C. et al., Chem. Res. Toxicol, 2015, 28: 570-584).
# QTcF interval = assay: TQT study of moxifloxacin-induced QT prolongation in healthy volunteers; assay type: in vivo, humans; details: 75 mg ATT oral 60 minutes before 400 mg oral moxifloxacin
# Protocol: Principle: Following the 2005 ICH E14 recommendation (FDA, 2005), a TQT study (“through QT study”) was conducted in healthy volunteers to evaluate the protective effect of ATT on QT prolongation induced by a single oral dose of 400 mg moxifloxacin.
# Methodology: This was a single-dose, cross-over study conducted in healthy volunteers.
# The volunteers, 16 men aged 18 to 40, were selected based on the following criteria: medical history, physical examination (including a BMI between 18 and 26 kg/m2), vital signs, clinical examinations, biological check-up and 12-lead ECG.
# The selected volunteers were equipped with a Holter ECG for a 24-hour recording.
# Four sequences were tested with a 7-day wash-out period between each: • 1st sequence—no treatment was given; • 2nd sequence—each volunteer received a 400 mg oral dose of moxifloxacin; • 3rd sequence—each volunteer took 75 mg of ATT by mouth (3 tablets of Sulfarlem® 25); and • 4th sequence—each volunteer received a 400 mg oral dose of moxifloxacin, 60 minutes after an oral dose of 75 mg ATT (3 tablets of Sulfarlem® 25). […]
# tenocytes = details: pre-incubation of tenocytes with ATT at 10 μM for 3 hours; oxidative stress induced by FQ (ciprofloxacin, ofloxacin, pefloxacin); cited from earlier work
# human Jurkat T cells = details: cited from earlier work
# [4] = rats; cited from earlier work
# [5] = 70 years marketed in France; cited from earlier work
smiles,measurement,setting,value
"Oc1ccc(-c2cc(=S)ss2)cc1 [ATX, 4-OH-anethole trithione]",circulating product found after oral administration of ATT,[1],most of the circulating product found is ATX
same,solubility in water,Solubility in water,insoluble in water
"O=[N+]([O-])c1ccc(Oc2ccc(S(=O)(=O)NC3CCCCC3)cc2)cc1 [NC-POBS, N-cyclohexyl-4-(4-nitrophenoxy)benzenesulfonamide]",specific inhibition of mitochondrial ROS production,[2],specific inhibitor of mitochondrial ROS production
COc1c(N2C[C@@H]3CCCN[C@@H]3C2)c(F)cc2c(=O)c(C(=O)O)cn(C3CC3)c12 [moxifloxacin],QT and QTc intervals,QT and QTc intervals; moxifloxacin 15 mg/kg slow IV alone,significantly increased
"COc1ccc(-c2cc(=S)ss2)cc1 [ATT, 5-(4-methoxyphenyl)-3H-1,2-dithiole-3-thione]",outcome of treatment of acute organochlorine poisoning,[3],successfully treated
same,QT and QTc intervals,QT and QTc intervals; ATT 5 mg/kg i.p. 30 minutes before moxifloxacin 15 mg/kg slow IV,maintained in the normal range
same,upper limit of the confidence interval of the effect of moxifloxacin on the QTcF interval,QTcF interval,less than 10 msec
same,cellular production of ROS,tenocytes,significantly reduces
same,free radical scavenger and antioxidant activity,human Jurkat T cells,powerful free radical scavenger and antioxidant
same,Vd,[4],about 2 L/kg
same,side effects relating to long-term use,[5],no side effects have been reported
